In patent US20080279961A1, “TELOMERE TARGETING AGENTS AS STEM CELLS DIRECTED TREATMENTS” (priority 2007, published 2008):

Assays:
MCF-7 cells = assay: MTT proliferation assay (bulk cells); type: cell-based, human; details: MCF-7, 5 day; read-out: IC50 bulk cell / whole cell population by MTT assay
Protocol: (§1) The growth inhibitory activity of RHPS4 in human bulk tumor cells have been compared, by MTT assay, against RHPS4 activity in tumor cells grown as colonies in the clonogenic assay, also termed the human tumor stem cell assay (HTCA) (FIG. 2A-B). HEK293T human embryonic kidney cells grown in the HTCA, and cord blood cells cultured in methylcellulose were also treated with RHPS4 (FIG. 2C). The MTT assay is a 5 day proliferation test measuring effects on a morphologically heterogeneous, differentiated cell population (bulk cells), whereas the HTCA and methylcellulose assays are longer term (10-15 day) tests in which only a very small fraction of a bulk culture (˜0.1-1%) will grow as colonies. Cells growing anchorage-independently as colonies in a semi-solid matrix are considered to be pluripotent stem cells (Hamburger & Salmon, 1977; Locke et al., 2005; Fiebig et al. 2004). […] Similar observations were made with the breast cancer cell line MCF-7 (shown in FIG. 2B, HTCA IC50=0.04 microM; bulk cell IC50=2 microM).

UXF1138L cells = assay: MTT proliferation assay (bulk cells); type: cell-based, human; details: 5 day, read-out: IC50 growth inhibition of the bulk population by MTT assay
Protocol: as §1

PC3 cells = assay: MTT proliferation assay (bulk cells); type: cell-based, human; details: PC3, 5 day; read-out: IC50 growth inhibition of the bulk population by MTT assay
Protocol: as §1

[1] = test system: human cord blood mononuclear cells; assay: methylcellulose colony assay; type: cell-based
Protocol: The UXF1138L uterus carcinoma cell line was originally established from a patient tumor by Prof. Heiner Fiebig at the University of Freiburg, Germany (Fiebig and Burger, 2001). All animal experiments were conducted under an animal license approved by the German Federal Government (Regierungspräsidium Freiburg) and in compliance with the UKCCCR guidelines on experimental neoplasia (Workman et al., 1998). Six to eight weeks old female thymus aplastic nude mice of NMRI genetic background were used for establishment and serial propagation of the human tumor xenograft from the cell line. PC3 and MCF-7 cells were obtained from American Type Culture Collection, Manassas, Va. The HEK293T human embryonic kidney cell line was a kind gift from Dr. Arun Seth, Sunnybrook Health Sciences Centre, Toronto, CA. Umbellical vein cord blood was freshly obtained from a hospital maternity ward with the consent of the respective patient, specimens were anonymized. The cord blood was collected into a BD Vacutainer CPT™ and the mononuclear fraction isolated by centrifugation following the manufacturers instructions.
In human tumor stem cell assay (HTCA)/clonogenic assay, single cell suspensions from in vivo studies above were washed in medium and passed through sieves and the resulting single cell suspensions seeded into soft agar (n=3 tumors per group) as described by us before (Fiebig et al., 2004). Single cell suspensions of cell lines were prepared by trypsinization from cells growing as monolayers on plastic. Briefly, 5,000 (HEK293T cells), 10,000 (PC3, MCF-7 and UXF1138L cells) or 50,000 (UXF1138L tumor tissue) vital cells were added to 0.2 ml Iscove's medium/20% fetal bovine serum/0.05% gentamycin containing 0.4% agar and plated on top of a base layer consisting of 0.2 ml medium with 0.75% agar. The next day, the agar layers were fed with Isocve's medium and cultures incubated at 37° C., 7% CO2 for approximately 11 days. Vital colonies were stained with 2-(4-iodophenyl)-3-(4-nitrophenyl)-5-phenyltetrazolium chloride (1 mg/ml) 24 hrs before evaluation, and colonies >70 μm were counted with an automated image analysis system (Omincon FAS IV, BIOSYS GmbH, Karben, Germany). Drug effect was assessed as growth inhibitory concentrations 50 and 70% (IC50, IC70). Methylcellulose was used to grow cord blood stem cells instead of soft agar. The seeding density was 20,000 cells/well. Stem cell growth factor supplemented and optimized methylcellulose (Methocult H4434) was purchased from Stem Cell Technologies (Vancouver, CA). Methylcellulose lacking growth factors was used as negative growth control. Statistical significance between treatment groups was evaluated by using the Student T-test. […]

[2] = test system: normal monkey bone marrow stem cells; assay: methylcellulose colony growth of bone marrow stem cells; type: cell-based; details: low drug concentrations
Protocol: For the monkey bone marrow and the human cord blood, methylcellulose from StemCell Technologies (Vancouver) was used to grow the stem cells as colonies. […] Cancer tissues are composed of various cell types, tumor cells, stromal fibroblasts, blood vessels, inflammatory cells, and adipocytes, all of which can carry over into single cell suspensions that are seeded into soft agar after tissue digestion. To examine whether tumor stem cells secrete cytokines that support their growth of enforce differentiation, the expression of 6 cytokines found in the supernatant of clonogenic assays was evaluated. Ultrasensitive immunoassay procedures based on the ELISA (enzyme linked immuno absorbent assay) technology were employed for the measurement of VEGF, TNF-alpha, GMCSF, GCSF IL4 and IL6. The assays were performed by the Cytokine Laboratory in the VA Hospital at the University of Maryland Baltimore and data provided as optical density readouts that were converted relative to a standard into pg/ml absolute cytokine values. The IL4 and 6 measurements were all negative; however VEGF, TNF-alpha, GMCSF and GCSF yielded interesting and differential results between tumor and normal stem cells. While cytokine levels decreased after RHPS4 treatment in tumor stem cell assays, they increased in normal stem cell cultures.

COS(=O)(=O)[O-].Cc1cc2c3c([n+](C)c4ccc(F)cc4c3c1)-c1cc(F)ccc1N2C [RHPS4, 3,11-difluoro-6,8,13-trimethyl-8H-quino[4,3,2-kl]acridinium methosulfate]
IC50 (MCF-7 cells): 2000 nM
IC50 (UXF1138L cells): 400 nM
IC50 (PC3 cells): 1800 nM
stimulation of growth, number of colonies compared to vehicle ([1]; 0.1 and 1 mircoM RHPS4, cord blood): doubling to tripling the number of colonies
RHPS4 concentrations that inhibited colony formation ([1]; cord blood cells): > 1 mircoM
drug concentration at which cell kill of normal stem cells was seen ([1]; cord blood colony forming units): ~10 mircoM
least percentage (cut-off level) of growth induction ([1]; individual cord blood experiments, % of control growth): ≥ 150%
growth of normal monkey bone marrow stem cells [2]: induces the growth
